Measurements from publication PMC8351079, “Molecular encapsulation of andrographolide in 2-hydroxypropyl-β-cyclodextrin cavity: synthesis, characterization, pharmacokinetic and in vitro antiviral activity analysis against SARS-CoV-2” (Heliyon, 2021).
≈ marks a conversion by molar mass, not a printed value. Where two headings read alike, the source gives them in different places.

What was measured:
[1] = room temperature; cited from earlier work
[2] = in vivo, cited from earlier work
[3] = cited from earlier work
[4] = Dissolution test (USP apparatus, SIF pH 7.2); format: physicochemical; conditions: SIF pH 7.2, after 2 h
Procedure: Dissolution testing was carried out using USP dissolution rate test apparatus as per the standard protocol with HPLC method as specified earlier. In brief, 100 mg of AND or 100 mg of AND equivalent in AND-2-HyP-β-CYD complex powder was suspended in simulated intestinal fluid (SIF, pH 7.2, 900 mL) and paddle was rotated at 50 rpm. The temperature of SIF was kept at 37 ± 2 °C. At specified time intervals, 2 mL of the SIF was taken and replaced with identical volume.

[5] = Solubility analysis by saturated solution method; format: physicochemical; conditions: aqueous phase, 37 °C
Procedure: The solubility of solid complex was measured by saturated solution method. […] Subsequently, suspension was filtered and 0.1 mL was diluted to 1 mL with water. […] All measurements were noticed in triplicate (n = 3).

[6] = Pharmacokinetic analysis in rats (AND in plasma by HPLC); conditions: male, Sprague Dawley, in vivo, rat
[7] = as above; parameters: species or system male Sprague Dawley rats; conditions: in vivo, rat
Procedure: The pharmacokinetic analysis was carried out in male Sprague Dawley rats. The animals were kept in light controlled environment (Photoperiod~12 h, 23 ± 1 °C, 50 ± 5% humidity) with access to food and water ad libitum. […] In brief, 120 male rats were indiscriminately divided into 30 groups of 4 animals each similar to blood collection time points. AND and AND equivalent to 100 mg.kg^−1 in AND-2-HyP-β-CYD complex was administered orally by gavages.
The AND in plasma was monitored up to 48 h post oral administration of AND and AND-2-HyP-β-CYD complex. Blood samples were collected in both groups at 0.083, 0.25, 0.5, 1, 2, 4, 8, 16, 24 and 48 h. About 750 μl of blood sample was isolated from the retro-orbital vein into microcentrifuge tubes containing 100 μl of 10 % w/v sodium citrate as anticoagulant. The plasma was extracted from the blood by centrifugation at 5000 rpm for 20 min at 4 °C and stored at -40 °C until analyzed.
To extract the AND from plasma samples, plasma was typically mixed with methanol (1: 3 ratio) and vortexed for 20 min. Post mixing, the homogenate was centrifuged for 20 min at 5000 rpm to extract the proteins. The supernatant was filtered through 0.22 μm membrane filter and 10 μl was injected as specified earlier in to the HPLC system.
Plasma concentration data were analyzed and computed for one-compartmental pharmacokinetic parameters. The following pharmacokinetic parameters were assessed: ke (h), t1/2 (h), Cmax (μg.mL^−1), AUClast (h.μg.mL^−1), AUCinf (h.μg.mL^−1), MRT (h), CLTotal (L.h^−1), Vd (L) and F %.

SARS-CoV-2 = assay: microbe, parasite or virus in culture; format: cell-based; conditions: for % Inhibition of virus replication post infection: concentration not given; for IC50: Severe acute respiratory syndrome coronavirus 2, Vero C1008, Vero E6 cells infected with SARS-CoV-2, MOI 0.01, qRT-PCR after 48 h
[8] = Cytotoxicity testing, MTT cell proliferation assay; format: cell-based; conditions: African green monkey, Vero E6 cells, concentration not given, read-out: % Cell viability against Vero E6 cells
Procedure: The cytotoxic effect of AND-2-HyP-β-CYD complex on the property of Vero E6 cells was evaluated by using MTT dye [3-(4,5-dimethylthiazol-2-yl)-2,5-diphenyltetrazolium bromide] assay technique. In brief, 1 × 10^4 Vero E6 cells were incubated for 24 h in serum DMEM (Dulbecco's Modified Eagle Medium) of about 200-μl in a 96 wells microtiter plate. Subsequently, Vero E6 cells were incubated for 24 h as well as 72 h with 10 μg.mL^−1 or 100-μg.mL^−1 of AND-2-HyP-β-CYD complex. On the other hand, remedisivir was taken as standard in identical concentration range. MTT dye stock solution (0.5 mg.mL^−1) was incorporated to each well of the microtiter plate post completion of incubation time. The plate was further incubated in 5% CO2 incubator at 37 °C for 4 h. The formazon crystals liberated after cell lysis, were suspended in 100 μL of DMSO (Dimethyl sulfoxide) in the last step. The absorbance was captured using reference wavelength of 630 nm in a ELISA reader at 570 nm.

[9] = male, Sprague Dawley, oral, 100 mg/kg (AND equivalent)

CC(O)COC[C@H]1O[C@@H]2O[C@H]3[C@H](O)[C@@H](O)[C@@H](O[C@H]4[C@H](O)[C@@H](O)[C@@H](O[C@H]5[C@H](O)[C@@H](O)[C@@H](O[C@H]6[C@H](O)[C@@H](O)[C@@H](O[C@H]7[C@H](O)[C@@H](O)[C@@H](O[C@H]8[C@H](O)[C@@H](O)[C@@H](O[C@H]1[C@H](O)[C@H]2O)O[C@@H]8COCC(C)O)O[C@@H]7COCC(C)O)O[C@@H]6COCC(C)O)O[C@@H]5COCC(C)O)O[C@@H]4COCC(C)O)O[C@@H]3COCC(C)O (stereo partly drawn) [2-HyP-β-CYD, 2-Hydroxypropyl-β-cyclodextrin]
Aqueous solubility [1]: > 500000 µg/mL

C=C1CC[C@@H]2[C@](C)(CO)[C@H](O)CC[C@@]2(C)[C@@H]1C/C=C1/C(=O)OC[C@H]1O [AND, Andrographolide]
Half-life (t1/2) ([2]; iv): 1.86 ± 0.21 h | Absolute oral bioavailability ([2]; po): 9.27 ± 1.69% | Cmax ([2]; po): 0.73 ± 0.17 μM.L^−1 | Half-life (t1/2) ([2]; po): 3.30 ± 0.35 h | Tmax ([2]; po): 0.42 ± 0.14 h | log P [3]: 2.632 ± 0.135 | % release [4]: 27.89 ± 1.32% | solubility at 24 h [5]: 6.39 ± 0.47 µg/mL (≈ 18.2 µM) | AUC(0-inf) ([6]; iv, 10 mg/kg): 891 ± 180 µg·h/mL | AUC(0-t) ([6]; iv, 10 mg/kg): 801 ± 181 µg·h/mL | MRT ([6]; iv, 10 mg/kg): 1.11 ± 0.04 h | Vd ([6]; iv, 10 mg/kg): 0.013 ± 0.003 L | half-life ([6]; iv, 10 mg/kg): 0.859 ± 0.031 h | clearance ([6]; iv, i.v., 10 mg/kg, read-out: CLTotal (converted)): 0.183 mL/min | Tmax ([6]; oral, 100 mg.kg^−1): 2 h | bioavailability ([7]; male, Sprague Dawley, 100 mg.kg^−1, oral 100 mg/kg vs i.v. 10 mg/kg, read-out: F (%), bioavailability): 15.9 ± 3.84% | AUC(0-inf) [7, 9]: 1850 ± 306 µg·h/mL | AUC(0-t) [7, 9]: 1220 ± 143 µg·h/mL | Cmax [7, 9]: 240 ± 75.4 µg/mL | half-life [7, 9]: 5.92 ± 0.21 h | MRT ([7]; po, 100 mg/kg): 1.49 ± 0.0.085 h

CCC(CC)COC(=O)[C@H](C)N[P@](=O)(OC[C@H]1O[C@@](C#N)(c2ccc3c(N)ncnn23)[C@H](O)[C@@H]1O)Oc1ccccc1 [Remdesivir]
% Inhibition of virus replication post infection (SARS-CoV-2; 24 h, E gene): 72.26% | % Inhibition of virus replication post infection (SARS-CoV-2; 24 h, N gene): 77.61% | % Inhibition of virus replication post infection (SARS-CoV-2; 48 h, E gene): 99.64% | % Inhibition of virus replication post infection (SARS-CoV-2; 48 h, N gene): 99.76% | IC50 (SARS-CoV-2; read-out: IC50 (E gene)): 0.09 µg/mL (≈ 0.149 µM) | IC50 (SARS-CoV-2; read-out: IC50 (N gene)): 0.06 µg/mL (≈ 0.0996 µM) | viability at 24 h ([8]; 24 h): 99.2% | viability at 48 h ([8]; 48 h): 94.4%
